Here are results for ten compounds from publication PMC8653689, “Phenanthrotriazine Derivatives Containing Arylidine Hydrazone Moieties as Novel Potential c-Met Inhibitors with Anticancer Effect” (Iranian Journal of Pharmaceutical Research : IJPR, 2021).

Read-outs that look alike come from different tables or passages of the source.

Series [1] has as its system HT-29 (human colorectal adenocarcinoma) cells. The series is described as follows: MTT reduction assay, antiproliferative effect, HT-29. Conditions: for IC50: read-out: HT-29 IC50; for viability at 25 µM: cell line not named in the sentence (NA in HT-29, MCF-7, MOLT-4 in Table 1), read-out: Cell viability at the highest tested concentration. The class given is cell-based. An excerpt:
(§1) Fetal bovine serum (FBS), phosphate-buffered saline (PBS), RPMI-1640, and trypsin were obtained from Biosera (Ringmer, UK). Penicillin/streptomycin and MTT (3-(4,5-dimethylthiazol-2-yl)-2,5-diphenyltetrazolium bromide) were from Sigma-Aldrich (Saint Louis, MO, USA) and Invitrogen (San Diego, CA, USA), respectively. Dimethyl sulfoxide and doxorubicin were purchased from Merck (Darmstadt, Germany) and EBEWE Pharma (Unterach, Austria), respectively. The cells were acquired from Iranian Biological Resource Center, Tehran, Iran (HT-29 (human colorectal adenocarcinoma), MCF-7 (human breast adenocarcinoma) and Vero (African green monkey kidney) cells) or National Cell Bank of Iran, Pasteur Institute, Tehran, Iran (MOLT-4 (lymphoblastic leukemia) cells).
(§2) MTT reduction assay was employed to assess the viability of cancer cells after being treated with synthesized derivatives as previously described ([34]). The cells were plated in flat-bottom 96-well microplates, at densities of 3 × 10^4 cells/mL (100 μL in each well) and then incubated overnight at 37 °C. Three to four different concentrations of synthesized derivatives (in the range of 1 to 100 μM) were placed in triplicate wells and the plates were incubated for 72 h at 37 °C. […] At the end of the incubation time, 80 μL of the media in each well was replaced with the same amount of growth medium without phenol red containing 0.5 mg/mL of MTT. Cells were further incubated at 37 °C for 4 h and then 80 μL of the solution of each well was removed. The addition of DMSO (200μL) to each well solubilized the formazan crystals formed inside the viable cells after 1-hour incubation followed by 30-minute shaking. The optical absorbance of the final solution was determined at 570 nm using a Bio-Tek multimode plate reader (Synergy HTX). The cell viability was calculated compared to untreated control cells by comparison of absorbance measurements. CurveExpert software (version 1.34 for Windows) was used to determine the IC50 value for each compound. To confirm the results, every experiment was repeated 3 to 5 times.
(Tetrazolium assays rely on reduction of a dye to a coloured formazan, in cell work by metabolically active cells.)

In series [2] the test system is MCF-7 (human breast adenocarcinoma) cells. The series is described as follows: MTT reduction assay, antiproliferative effect, MCF-7. In kind it is cell-based.
Text: as §1, §2

The test system of series [3] is MOLT-4 (lymphoblastic leukemia) cells. Nature of the series: MTT reduction assay, antiproliferative effect, MOLT-4. To be noted: read-out: MOLT-4 IC50. The class given is cell-based, human.
Text: as §1, §2

Series [4] deals with Vero (African green monkey kidney) cells. Nature of the series: MTT reduction assay, Vero normal cells. The class given is cell-based. To be noted: read-out: Vero IC50.
Text: as §1, §2

For series [5], the system named is MCF-7 cells. Nature of the series: Cell cycle analysis, propidium iodide/RNase flow cytometric assay. In kind it is cell-based, human. To be noted: 48 h; for Effect on number of cells in G0/G1: MCF-7, 10 and 25 µM. The method, then: Alterations of the cell cycle were determined by the propidium iodide (PI)-RNase flow cytometric method ([35]). MCF-7 cells were used to determine the percentage of cells in each phase of the cell cycle. In 6-well plates, 2 × 10^5 cells were seeded in each well and incubated at 37 °C for 48 h. Afterward, they were treated for 48 h with derivatives 9g, 9j, 9k and 9l at 10 and 25 μM. The cells were then collected after trypsinization, washed twice with PBS, and fixed by 5 mL ethanol 70% for at least 24 h at -20 °C. After fixation, MCF-7 cells were washed with PBS two times and stained with PI 20 µg/mL and RNase 200 µg/mL for 30 min in the dark at room temperature. A FACS Calibur ﬂow cytometer (BD Biosciences) was used for the assays and 20,000 events were analyzed. The number of cells distributed in sub-G1, G0/G1, S, and G2/M were determined by CellQuest software (BD, USA).
Figure 2 Representative cell cycle histograms of MCF-7 cells treated with synthesized derivatives. Analysis of the percentage of cells in different phases of cell cycle was performed using propidium iodide (PI)-RNase flow cytometric assay. MCF-7 cells were seeded in 6-well microplates and treated with synthesized derivatives for 48 h. The cells were then collected and fixed in 70% ethanol overnight at -20 °C. In the end, the cells were stained with DNA staining solution (PI 20 µg/mL and RNase 200 µg/mL) for 30 min and 20,000 events were analyzed by a FACS Calibur ﬂow cytometer (BD Biosciences). Representative histograms of cells treated with compounds 9g, 9j, 9k and 9l are shown
(Flow cytometry measures light scatter and fluorescence of single cells or particles in a stream.)

The subject of series [6] is MCF-7 cells. Nature of the series: Hoechst 33258 staining, detection of apoptosis. Conditions: MCF-7, 72 h treatment, especially at 25 µM. In kind it is cell-based, human. The method, then: Hoechst 33258 was used as a DNA stain to detect apoptosis in cells. MCF-7 cells were seeded in a 6-well plate at a density of 5 × 10^4 cells/mL (2 mL per well) and incubated for 24 h. The whole medium was removed and different concentrations of test compounds 9g, 9j, 9k, and 9l diluted in 2 mL medium were placed in the different wells and incubated for 72 h. Afterward, the medium was removed again, 1 mL of 4% cold freshly prepared paraformaldehyde (PFA) was added, and cells were incubated for 20 min at room temperature. The cells were then washed 2 times with 1 ml PBS and incubated with 1 mL Hoechst 33258 2.5 µg/mL for 30 min in the dark at room temperature ([36], [37]). In the end, the cells were washed with 1 mL PBS and imaged with a fluorescence microscope.
Figure 3 Detection of apoptosis in MCF-7 cells by Hoechst staining. Hoechst 33258 was used as a DNA stain to detect apoptosis in MCF-7 cells treated with synthesized compounds. The cells were seeded in a 6-well plates and treated with different concentrations of test compounds 9g, 9j, 9k and 9l for 72 h. After removing the whole medium, 4% cold freshly prepared paraformaldehyde (PFA) was added for 20 min at room temperature, the cells were then washed twice with PBS, and incubated with Hoechst 33258 2.5 µg/mL for 30 min at room temperature in the dark. Finally, the cells were washed with PBS again and the plates were imaged with a fluorescence microscope

Where [7] appears, read: Homo sapiens, MCF7, 72 h, read-out: MCF-7 IC50, MTT, 72 h incubation.
The mark [8] stands for this setting: Chlorocebus sabaeus, Vero, 72 h.

Broadly, the IC50 is the point on the concentration scale where inhibition reaches its midpoint. Turning to `N.N.[Cl][Pt][Cl]` [Cisplatin, reference compound], the concentration for half-maximal inhibition (IC50) in series [1] (MTT, 72 h incubation) amounted to 24.6 ± 3.6 µM; in series [2] (MTT, 72 h incubation, read-out: MCF-7 IC50), 8.1 ± 2.6 µM; in series [3] (MTT, 72 h incubation), 2.9 ± 0.2 µM; in series [4] (MTT, 72 h incubation, normal cells) it was 7.8 ± 1 µM.
A word on the melting point: it is the temperature, or range, at which the solid turns liquid. The compound `C(=NNc1nnc2c3ccccc3c3ccccc3c2n1)c1ccccc1` [Compound 9a, 3-(2-benzylidenehydrazinyl)phenanthro [9,10-e][1,2,4]triazine] came in with a melting point of 286 to 290 °C. The viability at 25 µM in series [1] (Homo sapiens, MTT) was no less than 50%.
`COc1ccccc1C=NNc1nnc2c3ccccc3c3ccccc3c2n1` [Compound 9b, 3-(2-(2-methoxybenzylidene)hydrazinyl)phenanthro[9,10-e][1,2,4]triazine]: the melting point lay within 252 to 254 °C. Also, the IC50 in series [1] (Homo sapiens, HT-29, 72 h) was 20.1 ± 3 µM. Moreover, the 50% inhibitory concentration (IC50) in series [2] (setting [7]) was found to be 15.2 ± 3.1 µM. Also, the IC50 in series [3] (Homo sapiens, MOLT-4, 72 h) worked out at 7.8 ± 1.8 µM. Also, the IC50 in series [4] (setting [8]) was 13 ± 1.8 µM.
Compound `Oc1cccc(C=NNc2nnc3c4ccccc4c4ccccc4c3n2)c1` [Compound 9e, 3-((2-(phenanthro[9,10-e][1,2,4]triazin-3-yl)hydrazono)methyl)phenol] yielded a melting point of 219 to 223 °C. Besides, the half-maximal inhibitory concentration (IC50) in series [1] (Homo sapiens, HT-29, 72 h) was 15.2 ± 2.1 µM. Moreover, the concentration for half-maximal inhibition (IC50) in series [2] (setting [7]) came to 9.3 ± 1.6 µM. Also, the IC50 in series [3] (Homo sapiens, MOLT-4, 72 h) was found to be 4.4 ± 1.1 µM. Besides, the concentration for half-maximal inhibition (IC50) in series [4] (setting [8]) stood at 30 ± 6 µM.
Compound `Oc1cccc(C=NNc2nnc3c4ccccc4c4ccccc4c3n2)c1O` [Compound 9f, 3-((2-(phenanthro[9,10-e][1,2,4]triazin-3-yl)hydrazono)methyl)benzene-1,2-diol] yielded a melting point of 329 to 333 °C. The viability at 25 µM in series [1] (Homo sapiens, MTT) was no less than 50%.
Regarding `O=[N+]([O-])c1ccccc1C=NNc1nnc2c3ccccc3c3ccccc3c2n1` [Compound 9g, 3-(2-(2-nitrobenzylidene)hydrazinyl)phenanthro[9,10-e][1,2,4]triazine], the melting point is 225 to 229 °C. The half-inhibitory concentration (IC50) in series [1] (Homo sapiens, HT-29, 72 h) was determined as 16.7 ± 2.2 µM. Also, in series [2] (setting [7]), the half-maximal inhibitory concentration (IC50) is 6.2 ± 1.3 µM. The IC50 in series [3] (Homo sapiens, MOLT-4, 72 h) was found to be 5.4 ± 1 µM. Also, the IC50 in series [4] (setting [8]) is 11.1 ± 1 µM. In series [5] (MCF-7, 10 µM), the “Percentage of cells in G0/G1” value was found to be 69.25 ± 2.1, the “Percentage of cells in G2/M” value was found to be 18.58 ± 2.2, the “Percentage of cells in S” value was determined as 8.79 ± 1.3 and the “Percentage of cells in Sub G1” value came to 1.35 ± 0.3. In series [5] (MCF-7, 25 µM), the “Effect on cells in sub-G1 phase” value is on record as “increased the cells in the sub-G1 phase”, the “Percentage of cells in G0/G1” value is recorded as 74.76 ± 4.9, the “Percentage of cells in G2/M” value came to 13.97 ± 3.3 and the “Percentage of cells in S” value was determined as 7.58 ± 1.9. In addition, the “Percentage of cells in Sub G1” value in series [5] (MCF-7, 25 µM) was found to be 1.82 ± 0.3. Further, the “Effect on number of cells in G0/G1” value in series [5] was “significantly enhanced the number of cells in the G0/G1”. Also, in series [6], the “Apoptosis induction by Hoechst 33258 staining” value was “showed signs of apoptosis”.
In the case of `O=[N+]([O-])c1cccc(C=NNc2nnc3c4ccccc4c4ccccc4c3n2)c1` [Compound 9h, 3-(2-(3-nitrobenzylidene)hydrazinyl)phenanthro[9,10-e][1,2,4]triazine], the melting point was 216 to 219 °C. Further, the IC50 in series [1] (Homo sapiens, HT-29, 72 h) worked out at 12.2 ± 4.1 µM. In series [2] (setting [7]), the IC50 was 10.4 ± 2.9 µM. For the same compound, the half-inhibitory concentration (IC50) in series [3] (Homo sapiens, MOLT-4, 72 h) amounted to 3.9 ± 0.6 µM. Besides, the half-inhibitory concentration (IC50) in series [4] (setting [8]) stood at 19.4 ± 6.8 µM.
In the case of `O=[N+]([O-])c1ccc(C=NNc2nnc3c4ccccc4c4ccccc4c3n2)cc1` [Compound 9i, 3-(2-(4-nitrobenzylidene)hydrazinyl)phenanthro[9,10-e][1,2,4]triazine], the melting point lay in the range of 240 to 244 °C. The concentration for half-maximal inhibition (IC50) in series [1] (Homo sapiens, HT-29, 72 h) came out at 7.6 ± 0.8 µM. For the same compound, the half-inhibitory concentration (IC50) in series [2] (setting [7]) was found to be 17.7 ± 1.7 µM. For the same compound, the concentration for half-maximal inhibition (IC50) in series [3] (Homo sapiens, MOLT-4, 72 h) was determined as 7.5 ± 0.1 µM. For the same compound, the 50% inhibitory concentration (IC50) in series [4] (setting [8]) was determined as 7.4 ± 1.4 µM.
Compound `N#Cc1ccc(C=NNc2nnc3c4ccccc4c4ccccc4c3n2)cc1` [Compound 9j, 4-((2-(phenanthro[9,10-e][1,2,4]triazin-3-yl)hydrazono)methyl)benzonitrile] had a melting point of 231 to 234 °C. For the same compound, the IC50 in series [1] (Homo sapiens, HT-29, 72 h) is 15.3 ± 1.5 µM. Besides, the 50% inhibitory concentration (IC50) in series [2] (setting [7]) was 5.8 ± 0.7 µM. Further, in series [3] (Homo sapiens, MOLT-4, 72 h), the IC50 amounted to 5.5 ± 0.1 µM. For the same compound, the IC50 in series [4] (setting [8]) stood at 11.3 ± 2.1 µM. Further, in series [5] (MCF-7, 10 µM), the “Percentage of cells in G0/G1” value is on record as 71.40 ± 2.2, the “Percentage of cells in G2/M” value was 17.95 ± 3.0, the “Percentage of cells in S” value came out at 9.59 ± 2.0 and the “Percentage of cells in Sub G1” value worked out at 1.08 ± 0.2. Besides, in series [5] (MCF-7, 25 µM), the “Percentage of cells in G0/G1” value worked out at 73.10 ± 3.0, the “Percentage of cells in G2/M” value came to 17.51 ± 2.6, the “Percentage of cells in S” value stood at 8.09 ± 2.0 and the “Percentage of cells in Sub G1” value is listed as 1.30 ± 0.4. The “Effect on number of cells in G0/G1” value in series [5] was “significantly enhanced the number of cells in the G0/G1”. For the same compound, the “Apoptosis induction by Hoechst 33258 staining” value in series [6] was “showed signs of apoptosis”.
On to `COc1cccc2c1C(=O)c1c(O)c3c(c(O)c1C2=O)C[C@@](O)(C(=O)CO)C[C@@H]3O[C@H]1C[C@H](N)[C@H](O)[C@H](C)O1` [Doxorubicin, reference compound], for which the half-maximal inhibitory concentration (IC50) was determined as 0.409 ± 0.038 µM in series [1] (Homo sapiens, HT-29, MTT, 72 h incubation); 0.066 ± 0.007 µM in series [2] (Homo sapiens, MCF7, MTT, 72 h incubation, read-out: MCF-7 IC50); 0.017 ± 0.001 µM in series [3] (Homo sapiens, MOLT-4, MTT, 72 h incubation); 0.926 ± 0.031 µM in series [4] (Chlorocebus sabaeus, Vero, MTT, 72 h incubation, normal cells).
